“Also recorded” adds a separate entry of the source.
Tests used:
Format in all cases: cell-based, human
[1] = test system: normal breast epithelial (fR2) cells; assay: Cell viability (MTT) assay, normal cells
Description: Cell Culture and Reagents. The cell lines used in this study were procured from American Type Culture Collection (ATCC), Manassas, USA. MCF7, T47D and fR2 cells were cultured in RPMI-1640 medium, whereas the MDA-MB-231 cells were grown in Leibovitz's (L-15) medium supplemented with 10% fetal bovine serum (Gibco) and 1% penicillin/streptomycin (Sigma) in a humidified CO2 incubator (New Brunswick Galaxy 170 R) with 5% CO2. Reagents such as phenylmethylsulfonyl fluoride (PMSF), dithiothreitol (DTT), DMSO, crystal violet, and Bradford's reagent were purchased from Sigma-Aldrich. Protease inhibitor cocktail was procured from Roche. The antibodies for human GRP78, Par-4, MMP-2, MMP-9, NF-kB, E-cadherin and TIMP-1 were procured from Santa-Cruz Biotechnology. The β-actin antibody and the secondary antibodies such as anti-rabbit IgG and anti-mouse IgG were procured from Sigma-Aldrich.
Cell Viability Assay. The cell viability was determined by standard MTT assay method. […] The amount of coloured formazan derivatives formed was measured by taking optical density (OD) using a microplate reader (TECAN, Infinite M200 Pro) at 570 nm and the percentage cell viability was calculated. The IC50 values were calculated using GraphPad Prism software (Version 5.0). […]

[2] = test system: E-cadherin; assay: Immunoblotting, expression of E-cadherin; conditions: MDA-MB-231 cells; dose dependent
Description: Immunoblotting. MDA-MB-231 and MCF7 cells (0.5×10^6) were plated in six well plates for overnight in a humidified CO2 incubator and then exposed to varying concentrations of 5 (50, 100 and 200 nM) for 24 h along with vehicle (dose dependent study) and 200 nM of 5 for various time points like; 0, 6, 12, 24 and 48 h (time dependent study). Cells were then harvested, washed with chilled PBS and lysed with lysis buffer (HEPES 1 mM, KCl 60 mM, NP-40 0.3%, EDTA 1 mM, DTT 1 mM, sodium orthovanadate 1 mM, PMSF 0.1 mM and cocktail protease inhibitor). The cell extractions were centrifuged at 12,000 rpm for 10 min at 4° C. Protein concentration was measured by the standard Bradford method. An equal amount (20 μg) of protein from each sample was subjected to SDS-PAGE, and proteins were transferred to PVDF membranes (PALL), blocked with 5% (w/v) non-fat milk in PBS containing 0.1% Tween-20, probed with relevant antibodies (1:1000 dilution) for 3 h at room temperature or overnight at 4° C., and subsequently washed and probed with species-specific secondary antibodies coupled to horseradish peroxidase. Immunoreactive proteins were detected by Enhanced Chemiluminescence Plus (Thermo) (Rah et al., 2012, PloS one, 7(9), p.e44039.).

[3] = test system: MDA-MB-231 cells; assay: Drug potentiation, colony formation assay
Description: Colony Formation Assay. The experiment was performed according to the pre-standardized protocol (Amin et al., 2015, Mol. Carcinog). Accordingly, MDA-MB-231 cells were seeded in 6 well plates at a density of 1×10^3 cells/ well and incubated for 5 days by giving treatment with vehicle, compound 5, doxorubicin alone and/or combination of compound 5 plus doxorubicin (1:1 ratio). Cells were subsequently washed, fixed with methanol and stained with 0.2% crystal violet for 1 h. Cells were counted from atleast 3 random fields for the colony number under an inverted microscope and photographed at 20× magnifications.
Drug Potentiation Assay. Briefly, MDA-MB-231 cells were exposed to 200 nM of compound 5, 200 nM of doxorubicin alone and/or combination of both (1:1 ratio) for 48 h in cell viability (MTT) assay, for 5 days in a colony formation assay and subjected to western blotting for the expression of GRP78 and Par-4. The ability of 5 to enhance cell killing was expressed as potentiation index (PI), which was the ratio of the […]. Thus, PI>1 indicates potentiation and PI<1 indicates protection.

**Q.** For CCCCCCCC(c1oc(CO)cc(=O)c1O)c1c[nH]c2ccccc12 (centres unmarked) [Compound 5, 2-{1-(1H-indol-3-yl)octyl}-3-hydroxy-6-(hydroxymethyl)-4H-pyran-4-one], which IC50 ([1]; Homo sapiens, FR2, MTT, 44 h + 4 h, mean ± SD of three experiments) is on record?
**A.** Its IC50 is 74 µM.

**Q.** What about the “toxicity towards normal breast epithelial (fR2) cells” value ([1]; in words) of the same compound?
**A.** Its value is “non-toxic; also recorded: less/non-toxic”.

**Q.** And the “expression of E-cadherin” value [2]?
**A.** Its value is “induced significantly”.

**Q.** What about the “potentiation index (PI)” value ([3]; 200 nM 5 plus 200 nM doxorubicin (1:1), 5 days, colony formation) of the same compound?
**A.** Its value is 5.2.

**Q.** What about the “potentiation of the effect of doxorubicin” value ([3]; summary statement, combination with doxorubicin in breast cancer cells) of the same compound?
**A.** Its value is no more than 6 fold.
